How the values were obtained:
Assay type in all cases: functional
[1] = tested on: Rattus norvegicus; assay: Tested for % inhibition in carrageenan-induced rat paw adema after peroral administration of 100 mg/kg dose at 2 hours; details: route oral
[2] = tested on: Rattus norvegicus; assay: Tested for % inhibition in carrageenan-induced rat paw adema after intraperitoneal administration of 100 mg/kg dose at 2 hours; details: ip
[3] = tested on: Rattus norvegicus; assay: Tested for % inhibition in carrageenan-induced rat paw adema after peroral administration of 100 mg/kg dose at 3.5 hours; details: route oral
[4] = tested on: Rattus norvegicus; assay: Tested for % inhibition in carrageenan-induced rat paw adema after intraperitoneal administration of 100 mg/kg dose at 3.5 hours; details: ip

Row | Compound | inhibition in vivo at 100 mg/kg [1] | inhibition in vivo at 100 mg/kg [2] | inhibition in vivo at 100 mg/kg [3] | inhibition in vivo at 100 mg/kg [4]
1 | c1ccc(-c2nnc(-c3nsc4ccccc34)o2)cc1 | 60% | 60% | 32% | 48%
2 | CCn1c(S)nnc1-c1nsc2ccccc12 | 57% | 64% | 32% | 50%
3 | Cc1nnc(-c2nsc3ccccc23)o1 | 43% | 69% | 21% | 42%
4 | CCNc1nnc(-c2nsc3ccccc23)o1 | 53% | 65% | 29% | 42%
5 | Clc1ccc(Nc2nnc(-c3nsc4ccccc34)o2)cc1 | 14% | 48% | 10% | 40%
6 | COc1ccc(-c2nnc(-c3nsc4ccccc34)o2)cc1 | 21% | 45% | 29% | 33%
7 | c1ccc(Nc2nnc(-c3nsc4ccccc34)o2)cc1 | 56% | 67% | 27% | 48%
8 | CNc1nnc(-c2nsc3ccccc23)o1 | 10% | 67% | 10% | 60%
9 | c1ccc(-c2nnc(-c3nsc4ccccc34)s2)cc1 | 10% | 21% | 22% | 10%
10 | Clc1ccc(-c2nnc(-c3nsc4ccccc34)o2)cc1 | 13% | 50% | 24% | 33%
11 | COc1ccc(Nc2nnc(-c3nsc4ccccc34)o2)cc1 | 28% | 59% | 33% | 50%
12 | c1ccc(Nc2nnc(-c3nsc4ccccc34)s2)cc1 | 8% | 62% | 10% | 48%
13 | CCNc1nnc(-c2nsc3ccccc23)s1 | 34% | 59% | 25% | 50%
14 | Sc1nnc(-c2nsc3ccccc23)n1-c1ccccc1 | 10% | 81% | 10% | 60%
15 | CCc1nnc(-c2nsc3ccccc23)s1 | 10% | 10% | 12% | 10%
16 | CCc1nnc(-c2nsc3ccccc23)o1 | 10% | 10% | 18% | 10%
17 | CC(C)Cc1ccc(C(C)C(=O)O)cc1 (stereo not drawn) [IBUPROFEN] | 62% | 70% | 65% | 74%

— ChEMBL document CHEMBL1126523, “Synthesis and antiflammatory activity of some 3-heterocycle-1,2-benzisothiazoles” (1993)
